In patent US12655116B2, “Substituted isophthalic acid diamides” (Bayer Aktiengesellschaft, priority 2020, dated 2026):

What was measured:
VERPE = experiment: Pre-emergence herbicidal action against VERPE; assay type: in vivo, Veronica persica; details: dosage 80 g/ha
In short: (§1)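 Seeds sown in sandy loam, soil-covered; compound sprayed on soil surface pre-emergence. Application: WP/EC, 600–800 l/ha, 0.2% wetting agent. Readout: visual % damage at 3 weeks.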

SETVI [1] = experiment: Post-emergence herbicidal action against SETVI; assay type: in vivo, Setaria viridis
In short: (§2)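 Sandy loam, greenhouse; treatment 2–3 weeks after sowing, one-leaf stage. Aqueous suspension or emulsion from WP/EC sprayed on foliage (600–800 l/ha, 0.2% wetting agent). Readout: visual % action, ~3 weeks.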

STEME [2] = experiment: Post-emergence herbicidal action against STEME; assay type: in vivo, Stellaria media
In short: as §2

ALOMY [3] = experiment: Pre-emergence herbicidal action against ALOMY; assay type: in vivo, Alopecurus myosuroides; details: 80 g/ha, pre-emergence, scored visually after 3 weeks vs untreated controls (100% = plants have died, 0% = like control plants)
In short: as §1

HORMU = experiment: Pre-emergence herbicidal action against HORMU; assay type: in vivo, Hordeum murinum; details: 80 g/ha, pre-emergence
Excerpt: Seeds of monocotyledonous and dicotyledonous weed plants and crop plants are laid out in sandy loam soil in wood-fiber pots and covered with soil. The compounds of the invention, formulated in the form of wettable powders (WP) or as emulsion concentrates (EC), are then applied to the surface of the covering soil in the form of an aqueous suspension or emulsion at a water application rate equivalent to 600 to 800 l/ha, with addition of 0.2% wetting agent. After the treatment, the pots are placed in a greenhouse and kept under good growth conditions for the trial plants. The damage to the test plants is scored visually after a test period of 3 weeks by comparison with untreated controls (herbicidal activity in percent (%): 100% activity=the plants have died, 0% activity=like control plants). […] The tables below illustrate, in an illustrative manner, the post-emergence herbicidal action of the compounds of the invention, the herbicidal activity being stated in percent.

SETVI [4] = experiment: Pre-emergence herbicidal action against SETVI; assay type: in vivo, Setaria viridis
In short: as §1

AVEFA = experiment: Pre-emergence herbicidal action against AVEFA; assay type: in vivo, Avena fatua; details: 80 g/ha, pre-emergence
In short: as §1

STEME [5] = experiment: Pre-emergence herbicidal action against STEME; assay type: in vivo, Stellaria media
In short: as §1

PHBPU = experiment: Pre-emergence herbicidal action against PHBPU; assay type: in vivo, Pharbitis purpurea; details: dosage 80 g/ha
In short: as §1

AMARE [6] = experiment: Post-emergence herbicidal action against AMARE; assay type: in vivo, Amaranthus retroflexus; details: 20 g/ha, visual assessment about 3 weeks after treatment, 100% = plants have died, 0% = like control plants
In short: as §2

ALOMY [7] = experiment: Post-emergence herbicidal action against ALOMY; assay type: in vivo, Alopecurus myosuroides; details: dosage 20 g/ha, visual assessment about 3 weeks after treatment vs untreated controls
In short: as §2

ECHCG [8] = experiment: Pre-emergence herbicidal action against ECHCG; assay type: in vivo, Echinochloa crus-galli; details: 80 g/ha
In short: as §1

VIOTR = experiment: Pre-emergence herbicidal action against VIOTR; assay type: in vivo, Viola tricolor
In short: as §1

DIGSA [9] = experiment: Post-emergence herbicidal action against DIGSA; assay type: in vivo, Digitaria sanguinalis
In short: as §2

DIGSA [10] = experiment: Pre-emergence herbicidal action against DIGSA; assay type: in vivo, Digitaria sanguinalis
In short: as §1

MATIN [11] = experiment: Pre-emergence herbicidal action against MATIN; assay type: in vivo, Matricaria inodora
In short: as §1

ECHCG [12] = experiment: Post-emergence herbicidal action against ECHCG; assay type: in vivo, Echinochloa crus-galli
In short: as §2

LOLRI = experiment: Pre-emergence herbicidal action against LOLRI; assay type: in vivo, Lolium rigidum; details: 80 g/ha
In short: as §1

ABUTH [13] = experiment: Pre-emergence herbicidal action against ABUTH; assay type: in vivo, Abutilon theophrasti
In short: as §1

MATIN [14] = experiment: Post-emergence herbicidal action against MATIN; assay type: in vivo, Matricaria inodora
In short: as §2

ABUTH [15] = experiment: Post-emergence herbicidal action against ABUTH; assay type: in vivo, Abutilon theophrasti; details: visual assessment about 3 weeks after treatment vs untreated controls
In short: as §2

AMARE [16] = experiment: Pre-emergence herbicidal action against AMARE; assay type: in vivo, Amaranthus retroflexus
In short: as §1

[17] = 80 g/ha, scored visually after 3 weeks vs untreated controls (100% = plants have died, 0% = like control plants)

Question: For `CCc1c(C(=O)Nc2nnnn2CC)ccc(C(F)(F)F)c1C(=O)NC1CC1` [Example 2-273], which “Pre-emergence action against VERPE in %” value (VERPE) is on record?
Answer: The value was 100%.

Question: What about the “Post-emergence action against SETVI in %” value (SETVI [1]; dosage 5 g/ha) of the same molecule?
Answer: Its value is 80%.

Question: And the “Post-emergence action against SETVI in %” value (SETVI [1]; dosage 20 g/ha)?
Answer: Its value is 90%.

Question: What about the “Post-emergence action against STEME in %” value (STEME [2]; 20 g/ha) of the same molecule?
Answer: The value was 90%.

Question: What about the “Post-emergence action against STEME in %” value (STEME [2]; dosage 5 g/ha) of the same molecule?
Answer: The value was 80%.

Question: What about the “Pre-emergence action against ALOMY (herbicidal activity)” value (ALOMY [3]) of the same molecule?
Answer: The value was 90%.

Question: And the “Pre-emergence action against HORMU in %” value (HORMU)?
Answer: Its value is 80%.

Question: And the “Pre-emergence action against SETVI in %” value (SETVI [4]; dosage 20 g/ha)?
Answer: The value was 80%.

Question: What about the “Pre-emergence action against SETVI in %” value (SETVI [4]; dosage 80 g/ha) of the same molecule?
Answer: Its value is 90%.

Question: And the “Pre-emergence action against AVEFA in %” value (AVEFA)?
Answer: The value was 90%.

Question: And the “Pre-emergence action against STEME in %” value (STEME [5]; dosage 20 g/ha)?
Answer: Its value is 90%.

Question: And the “Pre-emergence action against STEME in %” value (STEME [5]; dosage 80 g/ha)?
Answer: Its value is 90%.

Question: What about the “Pre-emergence action against PHBPU in %” value (PHBPU) of the same molecule?
Answer: Its value is 90%.

Question: And the “Post-emergence action at 20 g/ha against AMARE in %” value (AMARE [6])?
Answer: Its value is 90%.

Question: What about the “Post-emergence action against ALOMY in %” value (ALOMY [7]) of the same molecule?
Answer: Its value is 80%.

Question: What about the “Pre-emergence action against ECHCG in %” value (ECHCG [8]) of the same molecule?
Answer: Its value is 90%.

Question: And the “Pre-emergence action against VIOTR in %” value (VIOTR; dosage 20 g/ha)?
Answer: The value was 90%.

Question: And the “Pre-emergence action against VIOTR in %” value (VIOTR; dosage 80 g/ha)?
Answer: Its value is 100%.

Question: What about the “Post-emergence action against DIGSA in %” value (DIGSA [9]; 5 g/ha) of the same molecule?
Answer: Its value is 80%.

Question: And the “Post-emergence action against DIGSA” value (DIGSA [9]; 20 g/ha)?
Answer: The value was 90%.

Question: What about the “Pre-emergence action against DIGSA in %” value (DIGSA [10]; dosage 20 g/ha) of the same molecule?
Answer: The value was 100%.

Question: What about the “Pre-emergence action against DIGSA in %” value (DIGSA [10]; dosage 80 g/ha) of the same molecule?
Answer: Its value is 100%.

Question: And the “Pre-emergence action against MATIN in %” value (MATIN [11]; dosage 20 g/ha)?
Answer: The value was 100%.

Question: And the “Pre-emergence action against MATIN in %” value (MATIN [11]; dosage 80 g/ha)?
Answer: The value was 100%.

Question: And the “Post-emergence action against ECHCG in %” value (ECHCG [12]; dosage 5 g/ha)?
Answer: The value was 80%.

Question: What about the “Post-emergence action against ECHCG in %” value (ECHCG [12]; dosage 20 g/ha) of the same molecule?
Answer: The value was 90%.

Question: And the “Pre-emergence action against LOLRI in %” value (LOLRI)?
Answer: Its value is 80%.

Question: What about the “Pre-emergence action against ABUTH (herbicidal activity)” value (ABUTH [13]; [17]) of the same molecule?
Answer: The value was 90%.

Question: And the “Pre-emergence action against ABUTH (herbicidal activity in percent)” value (ABUTH [13]; dosage 20 g/ha, scored visually after 3 weeks vs untreated controls, 100% = plants have died, 0% = like control plants)?
Answer: Its value is 90%.

Question: What about the “Post-emergence action against MATIN in %” value (MATIN [14]; dosage 5 g/ha) of the same molecule?
Answer: Its value is 80%.

Question: And the “Post-emergence action against MATIN in %” value (MATIN [14]; dosage 20 g/ha)?
Answer: Its value is 90%.

Question: What about the “Post-emergence action against ABUTH in %” value (ABUTH [15]; dosage 5 g/ha) of the same molecule?
Answer: Its value is 90%.

Question: What about the “Post-emergence action against ABUTH in %” value (ABUTH [15]; dosage 20 g/ha) of the same molecule?
Answer: Its value is 90%.

Question: And the “Pre-emergence action against AMARE in %” value (AMARE [16]; 20 g/ha, scored visually after 3 weeks vs untreated controls, 100% = plants have died, 0% = like control plants)?
Answer: Its value is 90%.

Question: What about the “Pre-emergence action against AMARE in %” value (AMARE [16]; [17]) of the same molecule?
Answer: The value was 100%.
